Among the data in ChEMBL document CHEMBL1158124, “Engineering of the spinosyn PKS: directing starter unit incorporation” (2006) are LC50 values, retold here.

Converted amounts (≈) assume the structure as drawn.

What all share (assay type): functional
Assay [1] concerns Aphis gossypii. The assay can be described thus: Insecticidal activity against cotton aphid assessed as count of nonwinged stage live aphid after 72 hrs with 24 hrs of photoperiod prior to grading.
Assay [2] relates to Myzus persicae. The assay can be described thus: Insecticidal activity against green peach aphid assessed as count of nonwinged stage live aphid after 72 hrs with 24 hrs of photoperiod prior to grading.
Assay [3] deals with Bemisia tabaci. Briefly: Insecticidal activity against sweet potato whitefly assessed as larval survival after 13 days. Particulars: 312 h.
The subject of assay [4] is Heliothis virescens. Briefly: Insecticidal activity against tobacco budworm assessed per larva.
Assay [5] relates to Spodoptera exigua. The assay can be described thus: Insecticidal activity against beet armyworm assessed as mortality per larva after 5 days.
Assay [6] has as its system Trichoplusia ni. Briefly: Insecticidal activity against cabbage looper assessed as mortality per larva after 5 days.
In assay [7] the test system is Tetranychus urticae. Briefly: Insecticidal activity against two-spotted spinder mites assessed as count of live mites after 4 days with low light condition. Particulars: 96 h.

Consider `CCC[C@H]1CCC[C@H](O[C@H]2CC[C@H](N(C)C)[C@@H](C)O2)[C@@H](C)C(=O)C2=C[C@@H]3[C@@H](C=C[C@@H]4C[C@@H](O[C@@H]5O[C@@H](C)[C@H](OC)[C@@H](OC)[C@H]5OC)C[C@@H]34)[C@@H]2CC(=O)O1` [21-DESETHYL-21-N-PROPYLSPINOSYN A], for which the LC50 is 27.3 µg/mL (≈ 36.6 µM) in assay [1]; greater than 50 µg/mL in assay [2]; greater than 50 µg/mL in assay [3]; 0.025 µg in assay [4]; 0.031 µg in assay [5]; 0.004 µg in assay [6]. Also, in assay [7], the LC50 was less than 50 µg/mL.

Consider `CO[C@@H]1[C@@H](OC)[C@H](C)O[C@@H](O[C@H]2C[C@H]3[C@@H]4C=C5C(=O)[C@H](C)[C@@H](O[C@H]6CC[C@H](N(C)C)[C@@H](C)O6)CCC[C@H](C(C)C)OC(=O)C[C@H]5[C@@H]4C=C[C@@H]3C2)[C@@H]1OC` [21-DESETHYL-21-ISOPROPYLSPINOSYN A], for which the values for the LC50 in assay [4], in assay [5] and in assay [6] were 0.02 µg, 0.123 µg and 0.022 µg, respectively.

For the compound `CC[C@H]1CCC[C@H](O[C@H]2CC[C@H](N(C)C)[C@@H](C)O2)[C@@H](C)C(=O)C2=C[C@@H]3[C@@H](C=C[C@@H]4C[C@@H](O[C@@H]5O[C@@H](C)[C@H](OC)[C@@H](OC)[C@H]5OC)C[C@@H]34)[C@@H]2CC(=O)O1` [SPINOSYN A], the LC50 in assay [1] came to 65 µg/mL (≈ 88.8 µM); in assay [2], 50 µg/mL (≈ 68.3 µM); in assay [3], 20 µg/mL (≈ 27.3 µM); in assay [4], 0.03 µg; in assay [5], 0.63 µg; in assay [6], 0.03 µg. Also, the LC50 in assay [7] was 5.3 µg/mL (≈ 7.24 µM).

`CO[C@@H]1[C@@H](OC)[C@H](C)O[C@@H](O[C@@H]2C[C@H]3CC[C@@H]4[C@@H](C=C5C(=O)[C@H](C)[C@@H](O[C@H]6CC[C@H](N(C)C)[C@@H](C)O6)CCC[C@H](C6CCC6)OC(=O)C[C@H]54)[C@@H]3C2)[C@@H]1OC` [5,6-DIHYDRO-21-DESETHYL-21-CYCLOBUTYLSPINOSYN A]: the LC50 is 1.7 µg/mL (≈ 2.24 µM) in assay [1]; greater than 50 µg/mL in assay [2]; 0.7 µg/mL (≈ 0.921 µM) in assay [3]; 0.02 µg in assay [4]; 0.134 µg in assay [5]; 0.013 µg in assay [6].

In the case of `CO[C@@H]1[C@@H](OC)[C@H](C)O[C@@H](O[C@H]2C[C@H]3[C@@H]4C=C5C(=O)[C@H](C)[C@@H](O[C@H]6CC[C@H](N(C)C)[C@@H](C)O6)CCC[C@H](C6CCC6)OC(=O)C[C@H]5[C@@H]4C=C[C@@H]3C2)[C@@H]1OC` [21-DESETHYL-21-CYCLOBUTYLSPINOSYNS A], the LC50 was 3 µg/mL (≈ 3.96 µM) in assay [1]; greater than 50 µg/mL in assay [2]; 55 µg/mL (≈ 72.6 µM) in assay [3]; 0.013 µg in assay [4]; greater than 1 µg in assay [5]; 0.124 µg in assay [6]. Moreover, in assay [7], the LC50 was greater than 50 µg/mL.

As to `CO[C@@H]1[C@@H](OC)[C@H](C)O[C@@H](O[C@H]2C[C@H]3[C@@H]4C=C5C(=O)[C@H](C)[C@@H](O[C@H]6CC[C@H](N(C)C)[C@@H](C)O6)CCC[C@H](C6CCC6)OC(=O)C[C@H]5[C@@H]4C=C(C)[C@@H]3C2)[C@@H]1OC`, the LC50 was 15 µg/mL (≈ 19.4 µM) in assay [1]; greater than 50 µg/mL in assay [2]; 13.5 µg/mL (≈ 17.5 µM) in assay [3]; 0.016 µg in assay [4]; 0.385 µg in assay [5]; 0.01 µg in assay [6].

Turning to `CO[C@@H]1[C@@H](OC)[C@H](C)O[C@@H](O[C@H]2C[C@H]3[C@@H]4C=C5C(=O)[C@H](C)[C@@H](O[C@H]6CC[C@H](N(C)C)[C@@H](C)O6)CCC[C@H](C6CC6)OC(=O)C[C@H]5[C@@H]4C=C[C@@H]3C2)[C@@H]1OC` [21-DESETHYL-21-CYCLOPROPYLSPINOSYNS A], the LC50 is 46 µg/mL (≈ 61.8 µM) in assay [1]; greater than 50 µg/mL in assay [2]; greater than 50 µg/mL in assay [3]; 0.125 µg in assay [4]; 1 µg in assay [5]; 0.157 µg in assay [6]. In addition, the LC50 in assay [7] is greater than 50 µg/mL.

With `CC[C@H]1CCC[C@H](O[C@H]2CC[C@H](N(C)C)[C@@H](C)O2)[C@@H](C)C(=O)C2=C[C@@H]3[C@@H](C=C(C)[C@@H]4C[C@@H](O[C@@H]5O[C@@H](C)[C@H](OC)[C@@H](OC)[C@H]5OC)C[C@@H]34)[C@@H]2CC(=O)O1` [SPINOSYN D], the LC50 in assay [1] turned out to be 50 µg/mL (≈ 67 µM); in assay [2], 50 µg/mL (≈ 67 µM); in assay [3] it was 1.7 µg/mL (≈ 2.28 µM); in assay [7], 19 µg/mL (≈ 25.5 µM).

Turning to `CO[C@@H]1[C@@H](OC)[C@H](C)O[C@@H](O[C@H]2C[C@H]3[C@@H]4C=C5C(=O)[C@H](C)[C@@H](O[C@H]6CC[C@H](N(C)C)[C@@H](C)O6)CCC[C@H](C)OC(=O)C[C@H]5[C@@H]4C=C[C@@H]3C2)[C@@H]1OC` [SPINOSYN E], the LC50 in assay [1] is greater than 50 µg/mL; in assay [2] it was greater than 50 µg/mL; in assay [3], 3.9 µg/mL (≈ 5.43 µM); in assay [7], 10 µg/mL (≈ 13.9 µM).
